Patent US9051240B2, “Substituted 2-[2-(phenyl) ethylamino] alkaneamide derivatives and their use as sodium and/or calcium channel modulators” (Newron Pharmaceuticals S.P.A., priority 2007, dated 2015)
Counter-ions that a name gives are not always drawn.

System: TTXs sodium channels
Test: TTXs-sodium channel influx assay (fluorescence, ND7/23 cell line)
Type: cell-based, rat
Conditions: ND7/23 cells, veratridine 100 μM; read-out: Na+ influx IC50
Procedure: ND7/23 rat dorsal root ganglion-derived cell line endogenously expresses a mixed population of TTXs sodium channels. These cells lack of TTXr sodium channels as shown by the absence of their respective transcripts.
ND7/23 cells were grown in DMEM supplemented with 10% FBS and 1 mM sodium piruvate. The cells were seeded at 50,000 cells/well on 96 poly-L-lysine-coated plates and further incubated for 18-24 h before use.
The Membrane Potential Kit Assay (Molecular Devices), based on a negatively charged fluorescent dye able to monitor changes in membrane potential caused by the sodium influx due to the channel opening, was used for the assay.
Cells were incubated with the dye loading for 30 minutes at 25° C. Then, 100 nM of the toxin Anemonia sulcata (used as enhancer of the channel opener response) alone or in the presence of TTX (as reference standard) or test compound were added for further 15 minutes.
The fluorescence (excitation:530 nm, emission: 565 nm wavelength) was measured before and after (40-45 s) the automated injection of the sodium channel opener veratridine (100 μM) using a Victor plate reader (Perkin Elmer).
(§1) The inhibition curves were calculated from 5 concentrations, each in triplicate, and the IC50 determined using linear regression analysis.

Row | Compound | IC50 [nM]
1 | CCCCOc1cccc(CCNCC(=O)N(CCC)CCC)c1 [2-[2-(3-Butoxyphenyl)-ethylamino]-N,N-dipropylacetamide hydrochloride] | 500
2 | CCCCCCOc1cccc(CCNCC(=O)N(C)C)c1.Cl [2-[2-(3-Hexyloxyphenyl)-ethylamino]-N,N-dimethylacetamide hydrochloride] | 500
3 | CCCCCOc1cccc(CCNCC(=O)N(C)C)c1.Cl [2-[2-(3-Pentyloxyphenyl)-ethylamino]-N,N-dimethylacetamide hydrochloride] | 500
4 | CCCCCOc1cccc(CCNCC(=O)N(CCC)CCC)c1 [2-[2-(3-Pentyloxyphenyl)-ethylamino]-N,N-dipropylacetamide hydrochloride] | 1100

System: L-type calcium channels
Test: Calcium channel influx assay (fluorescence, AtT20 cell line)
Type: cell-based, mouse
Conditions: AtT20 cells, 100 mM KCl depolarization; read-out: Ca++ influx IC50
Procedure: AtT20/D16v-F2 mouse pituitary tumour cell line preferentially expresses L-type calcium channels.
AtT20 cells were grown in DMEM with 10% of FBS, 4 mM glutamine. The cells were seeded at 200,000 cells/well on 96 poly-L-lysine-coated plates and further incubated for 18-24 h, before use.
The Ca^++ Kit Assay (Molecular Devices), which is based on a fluorescent calcium indicator to detect the calcium influx determined by depolarizing conditions, was used for the assay.
Cells were incubated with the calcium dye loading for 30 min at 37° C. Then, ω-conotoxin alone (1 μM) or in presence of nifedipine (as reference standard) or test compound were added for further 15 min.
The fluorescence (excitation: 485-emission: 535 nm wavelength) was measured before and after (30-40 sec) the automated injection of 100 mM KCl depolarizing solution using a Victor plate reader (Perkin Elmer).
as §1

Row | Compound | IC50 [nM]
5 | CCCCOc1cccc(CCNCC(=O)N(CCC)CCC)c1 [2-[2-(3-Butoxyphenyl)-ethylamino]-N,N-dipropylacetamide hydrochloride] | 1100
6 | CCCCSc1cccc(CCNCC(=O)N(C)C)c1 [2-[2-(3-Butylthiophenyl)-ethylamino]-N,N-dimethylacetamide hydrochloride] | 7200
7 | CCCCCCOc1cccc(CCNCC(=O)N(C)C)c1.Cl [2-[2-(3-Hexyloxyphenyl)-ethylamino]-N,N-dimethylacetamide hydrochloride] | 4000
8 | CCCCCOc1cccc(CCNCC(=O)N(C)C)c1.Cl [2-[2-(3-Pentyloxyphenyl)-ethylamino]-N,N-dimethylacetamide hydrochloride] | 8300
9 | CCCCCOc1cccc(CCNCC(=O)N(CCC)CCC)c1 [2-[2-(3-Pentyloxyphenyl)-ethylamino]-N,N-dipropylacetamide hydrochloride] | 6900
10 | CN(C)C(=O)CNCCc1cccc(OCCCC(F)(F)F)c1 [2-{2-[3-(4,4,4-Trifluorobutoxy)phenyl]-ethylamino}-N,N-dimethylacetamide hydrochloride] | 9300

System: Na+ currents in ND7/23 cells (TTX-s)
Test: Patch clamp evaluation of Na+ currents blockade in ND7/23 cell line
Type: cell-based, rat
Conditions: calculated from Kr and Kdep, read-out: Ki (apparent affinity for the inactivated state)
Procedure: ND7/23 (ECACC No 92090903 from SIGMA), is a hybrid cell line derived from a neonatal rat DRG fused with the mouse neuroblastoma N18Tg2 (Wood et al., Proc. Biol. Sci., 1990 September, 241(1302), 187-194).
The molecular identity of the channels responsible for the TTX-s conductance is unknown but it is presumed that TTX-s conductance arises from the activity of a mixed population of sodium channels.
Cells are routinously maintained in DMEM with 10% of FBS, 4 mM glutamine, 1 mM sodium piruvate. The day before the patch clamp experiment cells are detached and seeded at 100,000 cells/polylysine-coated 35 mm Petri dish.
Experiments on ND7/23 cells were carried out using standard whole cell patch clamp methods (Hamill et al., Pfugers Arch., 1981 August, 391(12), 85-100), as described in previous section.
To test the effect of compounds on sodium currents in ND7/23 cells, holding membrane potential was set at −90 mV, then a two step protocol was used to determine the voltage dependence of the block. Sodium currents were activated by a 30 ms step pulse to 0 mV (test pulse) from a 2000 ms preconditioning potential of −110 mV (resting condition) and a potential of ˜−70 mV (half maximal steady-state condition).
Tonic block of resting and depolarized currents at a given drug concentration was calculated as the difference between the peak Na^+ current in the control external bath solution and peak currents with the test substance divided by control peak.
Drug concentration-inhibition curves were obtained by plotting tonic blocks in the resting and depolarized condition, versus drug concentrations. Dose-response curves were fitted to the tonic block data, according to the logistic equation: y=A2+(A1−A2)/[1+(x/IC50)p]. A1 and A2 are fixed values of 0 and 1 corresponding to 0 and 100% current inhibition, x is the drug concentration, IC50 is the drug concentration resulting in 50% current inhibition and p is the corresponding slope factor.
The apparent affinity of drug for the inactivated state (Ki) was calculated according to the equation 1/Kdep=h/Kr+(1−h)/Ki where Kr is the affinity of drug for the resting/closed state; Kdep is the IC50 in the depolarized condition, h and (1−h) are the fractions of channels present at the rest. and dep. potentials, respectively.
Control bath solution contained (mM): NaCl 80, Choline HCl 40, CaCl2 1.3, MgCl2 2, KCl 2, CdCl2 0.4, NiCl2 0.3, TEACl 20, Hepes 10, Glucose 10.
Internal pipette solution consisted of (mM): CsF 65, CsCl 65, NaCl 10, CaCl2 1.3, MgCl2 2, Hepes 10, EGTA 10, MgATP 1.
Compounds were dissolved as stock solutions (20 mM) in DMSO. They were diluted to the final concentrations in the external solution.

Row | Compound | Ki [nM]
11 | CCCCOc1cccc(CCNCC(=O)N(C)C)c1F [2-[2-(3-Butoxy-2-fluorophenyl)-ethylamino]-N,N-dimethylacetamide] | 1000
12 | CCCCCOc1cccc(CCNCC(=O)N(C)C)c1.Cl [2-[2-(3-Pentyloxyphenyl)-ethylamino]-N,N-dimethylacetamide hydrochloride] | 500

Same assay, conditions: read-out: IC50 depolarized, preconditioning potential ~-70 mV

Row | Compound | IC50 [nM]
13 | CCCCOc1cccc(CCNCC(=O)N(C)C)c1F [2-[2-(3-Butoxy-2-fluorophenyl)-ethylamino]-N,N-dimethylacetamide] | 1700
14 | CCCCCOc1cccc(CCNCC(=O)N(C)C)c1.Cl [2-[2-(3-Pentyloxyphenyl)-ethylamino]-N,N-dimethylacetamide hydrochloride] | 700

Same assay, conditions: read-out: IC50 resting (Kr), preconditioning potential -110 mV

Row | Compound | IC50 [nM]
15 | CCCCOc1cccc(CCNCC(=O)N(C)C)c1F [2-[2-(3-Butoxy-2-fluorophenyl)-ethylamino]-N,N-dimethylacetamide] | 13000
16 | CCCCCOc1cccc(CCNCC(=O)N(C)C)c1.Cl [2-[2-(3-Pentyloxyphenyl)-ethylamino]-N,N-dimethylacetamide hydrochloride] | 2900

Target: MAO-B (Rattus norvegicus (Rat), UniProt P19643)
Sequence (P19643 whole entry): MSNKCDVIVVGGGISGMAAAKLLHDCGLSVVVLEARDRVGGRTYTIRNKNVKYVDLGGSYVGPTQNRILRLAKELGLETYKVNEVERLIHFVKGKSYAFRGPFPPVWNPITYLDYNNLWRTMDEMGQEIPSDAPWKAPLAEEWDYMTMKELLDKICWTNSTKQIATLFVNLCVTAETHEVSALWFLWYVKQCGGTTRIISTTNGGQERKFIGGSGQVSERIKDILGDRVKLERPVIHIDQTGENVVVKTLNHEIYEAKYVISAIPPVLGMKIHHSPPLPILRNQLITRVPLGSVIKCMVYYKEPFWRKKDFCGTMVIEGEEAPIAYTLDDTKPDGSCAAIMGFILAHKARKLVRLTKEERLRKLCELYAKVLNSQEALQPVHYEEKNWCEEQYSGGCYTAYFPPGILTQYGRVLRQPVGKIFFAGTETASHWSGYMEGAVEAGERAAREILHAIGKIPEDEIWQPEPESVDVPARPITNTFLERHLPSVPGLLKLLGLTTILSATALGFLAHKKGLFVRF
Test: In vitro MAO-B enzyme activity assay (radioenzymatic, rat brain mitochondria)
Type: biochemical
Conditions: 14C-PEA 0.5 μM
Procedure: Male Wistar rats (Harlan, Italy weighing 175-200 g) were sacrificed under light anaesthesia and brains were rapidly removed and homogenized in 8 volumes of ice-cold 0.32 M sucrose buffer containing 0.1 M EDTA, pH 7.4. The crude homogenate was centrifuged at 2220 rpm for 10 minutes and the supernatant recovered. The pellet was homogenized and centrifuged again. The two supernatants were pooled and centrifuged at 9250 rpm for 10 minutes at +4° C. The pellet was resuspended in fresh buffer and centrifuged at 11250 rpm for 10 minutes at +4° C. The resulting pellet was stored at −80° C. The enzyme activity was assessed with a radioenzymatic assay using the substrate ^14C-phenylethylamine (PEA) specific for MAO-B. The mitochondrial pellet (500 μg protein) was resuspended in 0.1 M phosphate buffer (pH 7.4). 200 μl of the suspension were added to a 50 μl solution of the test compound or buffer, and incubated for 30 min at 37° C. (preincubation) then the substrate (50 μl) was added. The incubation was carried out for 10 minutes at 37° C. (^14C-PEA, 0.5 μM). The reaction was stopped by adding 0.2 ml of perchloric acid. After centrifugation, the deaminated metabolites were extracted with 3 ml of toluene and the radioactive organic phase containing the neutral and/or acidic metabolites formed as a result of MAO-B activity was measured by liquid scintillation spectrometry at 90% efficiency. The MAO-B activity was expressed as nmoles of substrate transformed/mg protein/min.

Row | Compound | IC50 [nM]
17 | CCCCOc1cc(CCNCC(=O)N(C)C)ccc1OC [2-[2-(3-Butoxy-4-methoxyphenyl)-ethylamino]-N,N-dimethylacetamide hydrochloride] | > 300000
18 | CCCCOc1cccc(CCNCC(=O)NC)c1.Cl [2-[2-(3-Butoxyphenyl)-ethylamino]-N-methylacetamide hydrochloride] | 110000

System: mice
Test: Maximal electroshock test (MES) in mice
Type: in vivo
Conditions: Mus musculus, po, read-out: ED50 (mg/kg p.o.)
From the text: The maximal electroshock test (MES) is used commonly in the screening of anti-epileptic drugs in rodent models.
Animals and Apparatus: Male CD1 mice weighing 25 g were used. The procedure described by White et al. (White H. S., Woodhead J. H., Franklin M. R., Swinyard E. A., and Wolf H. H. Antiepileptic Drugs (1995) 4th ed: 99-110, Raven Press, Ltd., New York) was followed. An Ugo Basile electroconvulsive generator (Model ECT UNIT 7801) was used to deliver an electrical stimulus sufficient to produce a hindlimb tonic extensor response in at least 97% of control animals. The stimulus was delivered intra-aurally through clip electrodes in mice (0.7 s of a 40 mA shock, with a pulse train of 80 Hz having a pulse duration of 0.4 ms). The acute effect of compounds administered intraperitoneally (i.p.), subcutaneously (s.c.), intravenously (i.v.) or orally (p.o.) 5-120 minutes before MES induction were examined and compared with a vehicle control group. Ten mice were studied per group. Complete suppression of the hindlimb tonic extensor component of seizures was taken as evidence of anticonvulsant activity.
The compounds of the invention were administered p.o. or i.v., at the doses of 0.1-100 mg/kg.

Row | Compound | ED50 [mg/kg]
19 | CCCCCOc1cccc(CCNCC(=O)N(C)C)c1.Cl [2-[2-(3-Pentyloxyphenyl)-ethylamino]-N,N-dimethylacetamide hydrochloride] | 2.8

Same assay, conditions: Mus musculus, po; mice, MES, p.o.; read-out: ED50 (mg/kg p.o.)

Row | Compound | ED50 [mg/kg]
20 | CCCCOc1cccc(CCNCC(=O)NC)c1.Cl [2-[2-(3-Butoxyphenyl)-ethylamino]-N-methylacetamide hydrochloride] | 12.1
21 | CCCCCCOc1cccc(CCNCC(=O)N(C)C)c1.Cl [2-[2-(3-Hexyloxyphenyl)-ethylamino]-N,N-dimethylacetamide hydrochloride] | 4.6

Same assay, conditions: mice, MES, 10 mg/kg p.o.

Row | Compound | % protection 10 mg/kg p.o. [%]
22 | CCCCOc1cccc(CCNCC(=O)NC)c1.Cl [2-[2-(3-Butoxyphenyl)-ethylamino]-N-methylacetamide hydrochloride] | 30
23 | CCCCCCOc1cccc(CCNCC(=O)N(C)C)c1.Cl [2-[2-(3-Hexyloxyphenyl)-ethylamino]-N,N-dimethylacetamide hydrochloride] | 100
24 | CCCCCOc1cccc(CCNCC(=O)N(C)C)c1.Cl [2-[2-(3-Pentyloxyphenyl)-ethylamino]-N,N-dimethylacetamide hydrochloride] | 100
